The nature of this experiment: Compound was evaluated for average apparent binding constant (Kd ) using Scatchard analysis to dTMP synthetase enzyme from chick embryo.

For the molecule `O=c1nc(NO)ccn1[C@H]1C[C@H](O)[C@@H](COP(=O)(O)O)O1` [Phosphoric acid mono-[3-hydroxy-5-(4-hydroxyamino-2-oxo-2H-pyrimidin-1-yl)-tetrahydro-furan-2-ylmethyl] ester], the Kd was determined as 1 µM.

Source of the values: BindingDB's records for doi:10.1021/jm00376a004 (1984).
